In experiment [1] the test system is H4K20me3 in PC-3 cells (SUV420H1 cellular activity). Description: H4K20me3 Cellular PD Assay (high content microscopy). The class given is cell-based. The conditions noted are these: treated for 72 hours, H4K20me3 immunofluorescence, read-out: H4K20me3 Inhibition EC50. Here is the method:
A high content microscopy-based PD assay was used to analyze the decrease of H4K20me3 upon inhibition of SUV420H1 cellular activity. PC-3 cells were plated at 3,000 cells per well in black Collagen I coated 96-well plates (Perkin Elmer, #6005810) in RPMI supplemented with 10% heat inactivated FBS, 1% sodium pyruvate and 1% non-essential amino acids in a 37° C. tissue culture incubator. At 24 hours post seeding, cells were treated with the indicated compounds for 72 hours in an 8-point dose response using half log dilutions from […] and then fixed in 2% formaldhyde (Polysciences, Inc., #04018) for 10 minutes at room temperature. Cells were washed in PBS and permeablized in 0.1% Triton X-100 for 10 minutes at room temperature. After blocking in 1% BSA (Sigma, #A7030) in PBS for 1 hour at room temperature, a mouse monoclonal antibody directed toward H4K20me3 (Santa Cruz, #sc-134216) in antibody dilution buffer (0.3% BSA in PBS) was added for 16 hours at 4° C. Cells were then washed 3 times in PBS and an Alexa Fluor 555 conjugated goat anti-mouse (Life Technologies #A-21424) secondary antibody was added for 1 hour at room temperature. Hoechst 33342 diluted 1:10000 (Life Technologies #H3570) was also added during the secondary antibody incubation. Cells were washed 3 times in PBS and stored in PBS at 4° C. Fluorescent images were acquired within 24 hours on a Cell Insight (Thermo Fisher Scientific) using the Target Activation algorithm. Objects were identified via nuclear Hoescht staining, and changes in average mean intensity in the fluorescent signals of H4K20me3 were quantified using the HCS View software platform (Thermo Fisher Scientific).

For another experiment, the target named is SUV420H1 enzyme (Homo sapiens, UniProt Q4FZB7). Nature of the experiment: TR-FRET SAH SUV420H1 enzyme inhibition assay. The class given is biochemical. The conditions noted are these: Histone Peptide H4(8-30)me1 and SAM, TR-FRET detection of SAH, read-out: TR-FRET SAH_SUV420H1 IC50. How it is done: Test compounds were dispensed by a Labcyte Echo in 384-well low volume assay plates with 3-fold serial dilutions from 50 μM to 0.00075 μM. 5 μL of SUV420H1 enzyme (Abbvie) at 90 nM was added to all wells except for the no enzyme control wells and incubated for 30 minutes at room temperature before 5 μL of Histone Peptide H4(8-30)me1 (Anaspec) at 5 μM and SAM at 4 μM was added to all wells. The plates were incubated in a humidified chamber overnight at room temp and then 10 μL of the detection reagent that contained RIPA buffer (50 mM Tris-HCl, pH 8.0, 150 mM sodium chloride, 1.0% Igepal CA-630 (NP-40), 0.5% sodium deoxycholate and 0.1% sodium dodecyl sulfate) (Sigma) with 2 nM of Terbium chelate anti S-adenosyl-L-homocysteine (SAH) (Abbvie) antibody and Oregon Green labeled SAH at 4 nM was added. The plates were further incubated for 4 hours at room temperature. The plates were read in a Perkin Elmer Envision using a TR-FRET protocol with Excitation set at 335 nm and Emission at 520 and 495 nm. To generate dose response curves the data is normalized to percent inhibition by setting the average of the plus and minus enzyme control wells to 0% and 100% inhibition respectively. The ICso values for the compounds are generated by fitting the normalized data with Accelrys Assay Explorer 3.3 to a sigmoidal curve model using […], Y=(100*x^n)/(K^n+x^n), where Y is the measured response, x is the compound concentration, n is the Hill Slope and K is the IC50 and the lower and higher asymptotes are constrained to 0 and 100 respectively.
SUV420H1 enzyme, sequence (Q4FZB7 whole entry): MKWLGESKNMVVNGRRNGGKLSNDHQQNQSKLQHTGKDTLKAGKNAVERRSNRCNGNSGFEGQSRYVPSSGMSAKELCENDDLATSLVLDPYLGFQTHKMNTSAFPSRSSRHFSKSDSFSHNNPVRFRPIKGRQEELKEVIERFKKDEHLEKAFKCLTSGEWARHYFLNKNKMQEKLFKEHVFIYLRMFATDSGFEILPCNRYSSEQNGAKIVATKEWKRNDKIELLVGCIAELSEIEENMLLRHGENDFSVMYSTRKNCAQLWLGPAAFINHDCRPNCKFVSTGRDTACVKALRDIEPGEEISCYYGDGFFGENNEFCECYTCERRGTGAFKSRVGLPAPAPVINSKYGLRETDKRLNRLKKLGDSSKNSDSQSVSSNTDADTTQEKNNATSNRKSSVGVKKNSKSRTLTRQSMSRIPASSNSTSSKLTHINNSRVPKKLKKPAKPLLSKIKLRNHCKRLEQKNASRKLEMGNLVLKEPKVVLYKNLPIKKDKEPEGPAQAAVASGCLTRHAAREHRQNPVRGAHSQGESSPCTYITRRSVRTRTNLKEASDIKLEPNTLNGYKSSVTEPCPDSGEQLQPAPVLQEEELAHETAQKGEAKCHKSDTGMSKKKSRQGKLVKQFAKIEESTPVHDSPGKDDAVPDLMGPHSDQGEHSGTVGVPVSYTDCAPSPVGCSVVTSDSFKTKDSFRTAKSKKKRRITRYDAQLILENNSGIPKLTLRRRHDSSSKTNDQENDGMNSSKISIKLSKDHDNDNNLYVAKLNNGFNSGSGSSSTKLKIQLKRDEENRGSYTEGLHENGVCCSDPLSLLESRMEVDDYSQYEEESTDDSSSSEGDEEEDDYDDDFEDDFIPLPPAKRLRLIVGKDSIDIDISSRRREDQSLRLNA
On the technique in general: Time-resolved FRET reads energy transfer from a long-lived donor to a nearby acceptor.

Where two headings read alike, the source gives them in different places.

Broadly, the EC50 is the concentration at which the effect is half-maximal. One may read the IC50 as the concentration that gives 50% inhibition. For the molecule “1-{4-[6,7-dichloro-4-(cyclopentylamino)phthalazin-1-yl]pyridin-2-yl}pyrrolidin-3-ol [Example 36]”, the concentration giving a half-maximal response (EC50) in experiment [1] was determined as 1670 nM. Besides, the IC50 at SUV420H1 enzyme amounted to 173 nM.
`Clc1cc2c(Cl)nnc(NC3CCCC3)c2cc1Cl` [Example 1, 4,6,7-trichloro-N-cyclopentylphthalazin-1-amine]: in experiment [1] (Homo sapiens), the EC50 amounted to 11400 nM. For the same molecule, the IC50 on SUV420H1 enzyme is 361 nM.
For `Cn1ccc(-c2nnc(NC3CCCC3)c3cc(Cl)c(Cl)cc23)n1` [Example 4, 6,7-dichloro-N-cyclopentyl-4-(1-methyl-1H-pyrazol-3-yl)phthalazin-1-amine], in that order: 1160 nM and 94.2 nM.
With `Cn1cc(-c2nnc(NC3CCCC3)c3cc(Cl)c(Cl)cc23)cn1` [Example 5, 6,7-dichloro-N-cyclopentyl-4-(1-methyl-1H-pyrazol-4-yl)phthalazin-1-amine], in experiment [1] (Homo sapiens), the EC50 was determined as 505 nM. In addition, the IC50 at SUV420H1 enzyme was 111 nM.
On to `Clc1cc2c(NC3CCCC3)nnc(-c3ccncc3)c2cc1Cl` [Example 6, 6,7-dichloro-N-cyclopentyl-4-(pyridin-4-yl)phthalazin-1-amine], for which, in experiment [1] (Homo sapiens), the EC50 is 522 nM. The 50% inhibitory concentration (IC50) on SUV420H1 enzyme came to 38.6 nM.
For the molecule `Clc1cc2c(NC3CCCC3)nnc(-c3ccsc3)c2cc1Cl` [Example 7, 6,7-dichloro-N-cyclopentyl-4-(thiophen-3-yl)phthalazin-1-amine], the EC50 in experiment [1] (Homo sapiens) was 1510 nM. Besides, the IC50 on SUV420H1 enzyme is 75.3 nM.
For the molecule `Clc1cc2c(NC3CCCC3)nnc(N3CCCCC3)c2cc1Cl` [Example 8, 6,7-dichloro-N-cyclopentyl-4-(piperidin-1-yl)phthalazin-1-amine], the EC50 in experiment [1] (Homo sapiens) stood at 2920 nM. At SUV420H1 enzyme, the concentration for half-maximal inhibition (IC50) stood at 87.1 nM.
In the same order, the values of `CN1CCN(c2nnc(NC3CCCC3)c3cc(Cl)c(Cl)cc23)CC1` [Example 9, 6,7-dichloro-N-cyclopentyl-4-(4-methylpiperazin-1-yl)phthalazin-1-amine] are 3430 nM and 373 nM.
For `Clc1cc2c(NC3CCCC3)nnc(-c3ccnc(N4CCNCC4)c3)c2cc1Cl` [Example 18, 6,7-dichloro-N-cyclopentyl-4-[2-(piperazin-1-yl)pyridin-4-yl]phthalazin-1-amine], the half-maximal effective concentration (EC50) in experiment [1] (Homo sapiens) was determined as 1050 nM. Also, the IC50 at SUV420H1 enzyme was 525 nM.
Regarding `Fc1ccc(-c2nnc(NC3CCCC3)c3cc(Cl)c(Cl)cc23)cn1` [Example 19, 6,7-dichloro-N-cyclopentyl-4-(6-fluoropyridin-3-yl)phthalazin-1-amine], the EC50 in experiment [1] (Homo sapiens) is 1210 nM. The IC50 on SUV420H1 enzyme was determined as 163 nM.
For `CN(C)c1ccc(-c2nnc(NC3CCCC3)c3cc(Cl)c(Cl)cc23)cn1` [Example 20, 6,7-dichloro-N-cyclopentyl-4-[6-(dimethylamino)pyridin-3-yl]phthalazin-1-amine], in that order: 9540 nM and 415 nM.
In the same order, the values of `CN(CCO)c1ccc(-c2nnc(NC3CCCC3)c3cc(Cl)c(Cl)cc23)cn1` [Example 26, 2-{[5-[6,7-dichloro-4-(cyclopentylamino)phthalazin-1-yl]pyridin-2-yl}(methyl)amino]ethanol] are 4500 nM and 389 nM.
For `OC1CCN(c2cc(-c3nnc(NC4CCCC4)c4cc(Cl)c(Cl)cc34)ccn2)CC1` [Example 29, 1-{4-[6,7-dichloro-4-(cyclopentylamino)phthalazin-1-yl]pyridin-2-yl}piperidin-4-ol], in that order: 3080 nM and 470 nM.
For the molecule `O=C(C1CC1)N1CC=C(c2nnc(NC3CCCC3)c3cc(Cl)c(Cl)cc23)CC1` [Example 70, cyclopropyl {4-[6,7-dichloro-4-(cyclopentylamino)phthalazin-1-yl]-3,6-dihydropyridin-1(2H)-yl}methanone], the EC50 in experiment [1] (Homo sapiens) was found to be 15600 nM.
On the same count and under the same terms, under `Cn1cc(C(=O)N2CC=C(c3nnc(NC4CCCC4)c4cc(Cl)c(Cl)cc34)CC2)cn1` [Example 78, {4-[6,7-dichloro-4-(cyclopentylamino)phthalazin-1-yl]-3,6-dihydropyridin-1(2H)-yl}(1-methyl-1H-pyrazol-4-yl)methanone] stands 13100 nM.

These data come from patent US20180093956A1, “SUBSTITUTED PHTHALAZINES” (AbbVie Inc., priority 2015, published 2018).
